From patent US20250042886A1, “BIS(HETERO)ARYL THIOETHER OXADIAZINES AS FUNGICIDAL COMPOUNDS” (Bayer Aktiengesellschaft, priority 2021, published 2025)

Legend:
[1] = system: Colletotrichum lindemuthianum; assay: In vivo preventive test on Colletotrichum lindemuthianum (leaf spot on bean); details: 168 h, 500 ppm of active ingredient, sprayed on young bean plants 24 h before inoculation, evaluated 7 days after inoculation, read-out: efficacy
Experimental: (§1) B-4. […] The active ingredients were made soluble and homogenized in a mixture of Dimethyl sulfoxide/Acetone//Tween® 80 and then diluted in water to the desired concentration. The young plants of bean were treated by spraying the active ingredient prepared as described above. Control plants were treated only with an aqueous solution of Acetone/Dimethyl sulfoxide/Tween® 80. After 24 hours, the plants were contaminated by spraying the leaves with an aqueous suspension of Colletotrichum lindemuthianum spores.

[2] = system: Botrytis cinerea; assay: In vivo preventive test on Botrytis cinerea (grey mould); details: 500 ppm of active ingredient, sprayed on young gherkin or cabbage plants 24 h before inoculation, evaluated 4 to 5 days after inoculation, read-out: efficacy
Procedure, shortened: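 Compounds in DMSO/acetone/Tween 80 were diluted in water and sprayed onto young gherkin or cabbage plants; controls got solvent only. After 24 h, leaves were sprayed with an aqueous Botrytis cinerea spore suspension.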

[3] = Measurement of Log P values by HPLC on reversed phase columns (EEC directive 79/831 Annex V.A8); format: physicochemical; details: Table 1, compounds of formula (I); method [a]: LC-UV, acidic range, 0.1% formic acid in water and acetonitrile
[4] = system: Colletotrichum lindemuthianum; assay: Colletotrichum lindemuthianum in vitro cell test; format: cell-based; details: 144 h, liquid culture, 6 days incubation, read-out: efficacy (inhibition of fungal growth); for inhibition at 20 ppm: 20 ppm of active ingredient; for inhibition at 50 µM: 50 μMol/l of active ingredient
Procedure, shortened: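 C. lindemuthianum spores in liquid glucose–peptone–yeast extract medium were exposed to compounds dissolved in DMSO. After 6 days, mycelial growth was measured by absorbance, and inhibition was calculated against compound-free control wells.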

[5] = system: Alternaria brassicae; assay: In vivo preventive test on Alternaria brassicae (leaf spot on radish or cabbage); details: 500 ppm of active ingredient, sprayed on young radish or cabbage plants 24 h before inoculation, evaluated 3 to 4 days after inoculation, read-out: efficacy
Experimental: as §1, with “B-1.” for “B-4.”, “radish or cabbage” for “bean”, “Alternaria brassicae” for “Colletotrichum lindemuthianum”

[6] = system: Pyrenophora teres; assay: Pyrenophora teres in vitro cell test; format: cell-based; details: 144 h, 50 μMol/l of active ingredient, liquid culture, 6 days incubation, read-out: efficacy (inhibition of fungal growth)
Procedure, shortened: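 Compounds in DMSO were added to P. teres spore suspensions in glucose/peptone/yeast-extract liquid medium, testing inhibition of spore germination and mycelium growth. After 6 days, mycelium growth was read by absorbance. Inhibition was calculated relative to fungicide-free control wells.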

[7] = system: Alternaria alternata; assay: Alternaria alternata in vitro cell test; format: cell-based; details: 120 h, 50 μMol/l of active ingredient, liquid culture, 5 days incubation, read-out: efficacy (inhibition of fungal growth)
Experimental: B-5. Alternaria alternata In Vitro Cell Test • Solvent: DMSO • Culture medium: 14.6 g anhydrous D-glucose (VWR), 7.1 g Mycological Peptone (Oxoid), 1.4 g granulated Yeast Extract (Merck), QSP 1 liter • Inoculum: spores suspension Fungicides were solubilized in DMSO and the solution used to prepare the required range of concentrations. […] A spore suspension of A. alternata was prepared and diluted to the desired spore density. Fungicides were evaluated for their ability to inhibit spore germination and mycelium growth in liquid culture assay. The compounds were added in the desired concentration to the culture medium with spores. After 5 days incubation, fungi-toxicity of compounds was determined by spectrometric measurement of mycelium growth. Inhibition of fungal growth was determined by comparing the absorbance values in wells containing the fungicides with the absorbance in control wells without fungicides.

[8] = system: Botrytis cinerea; assay: Botrytis cinerea in vitro cell test; format: cell-based; details: 144 h, 50 μMol/l of active ingredient, liquid culture, 6 days incubation, read-out: efficacy (inhibition of fungal growth)
Procedure, shortened: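 Compounds from DMSO stocks added at a range of concentrations to a defined mineral-salt/sucrose liquid medium inoculated with B. cinerea spores. After 6 days' incubation, mycelium growth was read by absorbance; inhibition of germination and growth was calculated against fungicide-free control wells.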

[9] = system: Pyricularia oryzae; assay: microbe, parasite or virus in culture; format: cell-based; details: 120 h, read-out: efficacy (inhibition of fungal growth), 50 μMol/l of active ingredient, liquid culture, 5 days incubation
[10] = system: Fusarium culmorum; assay: Fusarium culmorum in vitro cell test; format: cell-based; details: 120 h, 50 μMol/l of active ingredient, liquid culture, 5 days incubation, read-out: efficacy (inhibition of fungal growth)
Procedure, shortened: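 Spores in liquid mineral-salts/saccharose medium exposed to compounds (DMSO ≤1% final) for 5 days. Mycelium growth measured spectrometrically, with inhibition derived from absorbance relative to fungicide-free control wells.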

SMILES | pest or weed control at 500 ppm [1] [%] | pest or weed control at 500 ppm [2] [%] | chromatographic logP [3] | inhibition at 20 ppm [4] [%] | pest or weed control at 500 ppm [5] [%] | inhibition at 50 µM [6] [%] | inhibition at 50 µM [7] [%] | inhibition at 50 µM [8] [%] | inhibition at 50 µM [9] [%] | inhibition at 50 µM [4] [%] | inhibition at 50 µM [10] [%]
FC(F)(F)c1ccc(Sc2nnc(Cl)cc2C2=NOC[C@@H](Cc3ccc(Cl)cc3Cl)N2)cc1 (racemic) [Compound I-003] | 70 to 79 | 90 to 100 | 4.93 |  |  |  |  |  |  |  | 
Cc1ccc(C[C@H]2CON=C(c3nc(C)ncc3Sc3cccc(OC(F)(F)F)c3)N2)c(Cl)c1 (racemic) [Compound I-021] | 70 to 79 |  | 5.46 | 70 to 79 |  |  |  |  |  |  | 
Cc1ccc(C[C@H]2CON=C(c3nc(C)ncc3Sc3cccc(OC(F)(F)F)c3)N2)c(C)c1 (racemic) [Compound I-026] | 80 to 89 |  | 5.39 | 70 to 79 |  |  |  |  |  |  | 
Cc1ccc(C[C@@H]2CON=C(c3cc(Cl)nnc3Sc3ccc(C(F)(F)F)cc3)N2)c(C)c1 (racemic) [Compound I-027] | 90 to 100 |  | 5.31 |  | 90 to 100 |  |  |  |  |  | 
Cc1ccc([C@H]2CON=C(c3c(Sc4cccc(F)c4)nnc4ccccc34)N2)s1 (racemic) [Compound I-042] | 70 to 79 | 90 to 100 | 3.27 |  | 90 to 100 | 90 to 100 | 90 to 100 | 90 to 100 | 90 to 100 | 90 to 100 | 90 to 100
Cc1ccc([C@@H]2CON=C(c3c(Sc4cccc(C(F)(F)F)c4)nnc(C)c3C)N2)s1 (racemic) [Compound I-044] | 90 to 100 | 90 to 100 | 3.36 |  |  | 90 to 100 | 70 to 79 | 90 to 100 | 80 to 89 | 90 to 100 | 
Cc1cccc(Sc2nnc3ccccc3c2C2=NOC[C@H](c3ccc(C)s3)N2)c1 (racemic) [Compound I-062] | 90 to 100 | 90 to 100 | 3.47 |  | 90 to 100 | 90 to 100 | 90 to 100 | 90 to 100 | 80 to 89 | 90 to 100 | 90 to 100
Cc1cccc(Sc2nnc3ccccc3c2C2=NOC[C@H](c3ccc(C)s3)N2)n1 (racemic) [Compound I-066] | 70 to 79 | 90 to 100 | 2.69 |  | 80 to 89 |  |  | 90 to 100 | 70 to 79 | 90 to 100 | 70 to 79
Cc1cc([C@H]2CON=C(c3c(Sc4ccccc4)nnc(C)c3C)N2)c(C)s1 (racemic) [Compound I-069] | 70 to 79 | 90 to 100 | 3.03 |  | 80 to 89 |  | 80 to 89 | 90 to 100 | 80 to 89 | 90 to 100 | 90 to 100
Cc1cccc(Sc2nnc(C)c(C)c2C2=NOC[C@H](c3cc(C)sc3C)N2)c1 (racemic) [Compound I-078] | 90 to 100 | 90 to 100 | 3.33 |  | 90 to 100 | 90 to 100 | 80 to 89 | 90 to 100 | 80 to 89 | 90 to 100 | 80 to 89
COc1cccc(Sc2nnc(C)c(C)c2C2=NOC[C@@H](c3cc(C)sc3C)N2)c1 (racemic) [Compound I-079] | 80 to 89 | 90 to 100 | 3.11 |  |  | 80 to 89 | 70 to 79 | 90 to 100 | 70 to 79 | 90 to 100 | 90 to 100
COc1cccc(Sc2nnc3ccccc3c2C2=NOC[C@H](c3ccc(C)s3)N2)c1 (racemic) [Compound I-090] | 80 to 89 | 90 to 100 | 3.21 |  |  | 80 to 89 |  | 90 to 100 |  | 90 to 100 | 90 to 100
Cc1cccc(Sc2nnc(C)c(C)c2C2=NOCC(c3ccc(C)s3)N2)c1 (racemic) [Compound I-095, (5RS)-3-[5,6-dimethyl-3-(m-tolylsulfanyl)pyridazin-4-yl]-5-(5-methyl-2-thienyl)-5,6-dihydro-4H-1,2,4-oxadiazine] | 70 to 79 | 90 to 100 | 2.99 |  | 90 to 100 |  |  | 90 to 100 | 70 to 79 | 90 to 100 | 70 to 79
Cc1ccc([C@H]2CON=C(c3c(Sc4cccc(Cl)c4F)nnc4ccccc34)N2)s1 (racemic) [Compound I-108] | 90 to 100 | 90 to 100 | 3.68 |  | 90 to 100 | 90 to 100 | 90 to 100 | 90 to 100 | 90 to 100 | 90 to 100 | 90 to 100
Cc1ccc([C@H]2CON=C(c3c(Sc4cccc(C(F)(F)F)c4)nnc4ccccc34)N2)s1 (racemic) [Compound I-109] | 90 to 100 | 90 to 100 | 3.81 |  | 90 to 100 | 90 to 100 | 90 to 100 | 90 to 100 | 70 to 79 | 90 to 100 | 80 to 89
Cc1ccc([C@H]2CON=C(c3c(Sc4ccccc4C)nnc4ccccc34)N2)s1 (racemic) [Compound I-110] | 70 to 79 | 90 to 100 | 3.45 |  | 90 to 100 |  |  | 90 to 100 |  |  | 
Cc1ccc([C@H]2CON=C(c3c(Sc4cccc(Cl)c4)nnc4ccccc34)N2)s1 (racemic) [Compound I-135] | 90 to 100 | 90 to 100 | 3.61 |  | 90 to 100 | 90 to 100 | 90 to 100 | 90 to 100 | 90 to 100 | 90 to 100 | 90 to 100
